Measurements: US20250296909A1, “NOVEL BENZENE DERIVATIVE AND IMMUNOSUPPRESSION-RELATED USE THEREOF” (PROVIBIO CO., LTD., priority 2021, published 2025)

What was measured:
spleen T cells [1] = assay: T cell proliferation inhibition (CFSE, FACS), CD3/CD28-activated spleen T cells; assay type: cell-based, C57BL/6 mice; conditions: Table 2, 3 days, relative to CD3/CD28+DMSO; for inhibition at 10 µM / inhibition at 30 µM / inhibition at 50 µM: Mus musculus, T-cell, 72 h, read-out: Proliferation inhibition rate (%)
Method in brief: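 CFSE-labelled splenic T cells (CD90.2-isolated, 7-week C57BL/6 mice), 2×10^5/well, activated with anti-CD3/CD28 (0.5 μg/mL each) plus compound at 10, 30 or 50 μM in triplicate for 3 days at 37 °C. CFSE dilution by flow cytometry; inhibition % relative to CD3/CD28+DMSO proliferation.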

[2] = system: T lymphocyte cell line Jurkat E6-1; assay: Cytotoxicity experiment (CCK-8, relative cell survival); assay type: cell-based; conditions: 24 hours, untreated cells = 100%
Method in brief: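 Jurkat cells in RPMI-1640 with 10% FBS were exposed to compounds at several concentrations for 24 h at 37 °C, 5% CO2. CCK-8 added for 2 h, absorbance read at 450 nm; survival expressed relative to untreated cells (100%).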

spleen T cells [3] = assay: Cytokine secretion by anti-CD3/CD28-activated T cells (Cytometric Bead Array); assay type: cell-based, C57BL/6 mice; conditions: 30 μM; for secretion of IL-2: 24 hours after treatment, FIG. 3; for secretion of IFN-γ / secretion of IL-17A / secretion of TNF-α: 72 hours after treatment
Description: To confirm the effect of compounds of the present invention on the secretion of cytokines by T cells, the following experiment was conducted.
Spleens were harvested and minced from C57BL/6 mice at 7 weeks of age, and single cells were isolated using a strainer (40 μm pore size, SPL). Red blood cells were removed using ACK (Ammonium-Chloride-Potassium) lysis buffer to isolate only leukocytes. These were then reacted with 10 v/v % CD90.2 microbeads (130-121-278, Miltenyi Biotech.) at 4° C. for 20 minutes, resulting in the isolation of spleen T cells from magnetic-based purification. The T cells were cultured in a 96-well plate at an amount of 2×10^5 cells/well. For T cell activation, each well was treated with anti-CD3/CD28 antibodies at a concentration of 1 μg/mL. Subsequently, Vehicle (DMSO) and compounds (Compound 14, Compound 19, Compound 26, Compound 31, Compound 35, Compound 40, Compound 41, Compound 56, Compound 69, Compound 75) at a concentration of 30 μM were treated in each well, and it was cultured at 37° C. in a 5% CO2 incubator. After 24 and 72 hours, the T cell culture medium was taken, and centrifugation was performed at 13,000 rpm for 10 minutes to obtain the supernatant.
To measure the concentration of cytokines present in the T cell culture medium, Mouse Th1/Th2/Th17 Cytokine CBA Kit (Cytometric Bead Array kit) 560485 from BD Science was utilized for flow cytometry analysis. The secretion levels of IL-2 at 24 hours after each drug treatment, and IFN-γ, TNF-α, and IL-17A at 72 hours were measured after each drug treatment.

Structure (SMILES) | Proliferation inhibition rate (%) (spleen T cells [1]; 10 μM) | Proliferation inhibition rate (%) (spleen T cells [1]; 30 μM) | Proliferation inhibition rate (%) (spleen T cells [1]; 50 μM) | Relative cell survival rate (%) ([2]; 10 μM) | Relative cell survival rate (%) ([2]; 20 μM) | Relative cell survival rate (%) ([2]; 30 μM) | Relative cell survival rate (%) ([2]; 50 μM) | secretion of IL-2 (spleen T cells [3]) | secretion of IFN-γ (spleen T cells [3]) | secretion of IL-17A (spleen T cells [3]) | secretion of TNF-α (spleen T cells [3]) | inhibition at 10 µM (spleen T cells [1]; 10 μM) | inhibition at 30 µM (spleen T cells [1]; 30 μM) | inhibition at 50 µM (spleen T cells [1]; 50 μM)
CCCCCCCCCCCCNS(=O)(=O)c1ccccc1Br [Compound 35] | 85% | 92% | 93% | 97% | 89% | 87% | 86% | significant decrease | significant decrease | significant decrease | significant decrease | – | – | –
CCCCCCCCCCCCNS(=O)(=O)c1c(Cl)cccc1Cl [Compound 40] | 86% | 97% | 97% | 105% | 99% | 96% | 86% | significant decrease | significant decrease | significant decrease | significant decrease | – | – | –
CCCCCCCCCCCCNS(=O)(=O)c1c(C)cc(C)cc1C [Compound 41] | 80% | 100% | 100% | 85% | 83% | 82% | 80% | significant decrease | significant decrease | significant decrease | significant decrease | – | – | –
CCCCCCCCCCCCNC(=O)c1cccnc1 [Compound 19] | – | – | – | 94% | 87% | 82% | 83% | significant decrease | significant decrease | significant decrease | significant decrease | 19% | 99% | 100%
CCCCCCCCCCCCNC(=O)CNC(=O)c1ccccc1Cl [Compound 56] | 26% | 50% | 62% | 92% | 91% | 89% | 86% | significant decrease | significant decrease | significant decrease | significant decrease | – | – | –
CCCCCCCCCCCCNC(=O)c1cccnc1Oc1ccc(Cl)cc1 [Compound 26] | 73% | 100% | 100% | 101% | 97% | 85% | 82% | significant decrease | significant decrease | significant decrease | significant decrease | – | – | –
CCCCCCCCCCCCNC(=O)c1ccccc1-c1ccc(C)cc1 [Compound 27] | – | – | – | 109% | 77% | 71% | 63% | – | – | – | – | 62% | 96% | 100%
CCCCCCCCCCCCNC(=O)c1ncc(F)cc1F [Compound 34] | – | – | – | 112% | 109% | 101% | 87% | – | – | – | – | 6% | 43% | 87%
CCCCCCCCCCCCNS(=O)(=O)c1ccccc1F [Compound 45] | 30% | 59% | 97% | 96% | 94% | 76% | 74% | – | – | – | – | – | – | –
CCCCCCCCCCCCNC(=O)c1ncccc1N [Compound 67] | – | – | – | 94% | 93% | 93% | 92% | – | – | – | – | 35% | 88% | 100%
CC(C)=CCC/C(C)=C/CNC(=O)c1cccnc1N [Compound 75] | – | – | – | 97% | 95% | 86% | 85% | significant decrease | significant decrease | significant decrease | significant decrease | 95% | 98% | 98%
